Experimental findings from patent US12152031B2, “Biodefense agents” (priority 2018, dated 2024) are described below.

In brackets after ≈: the same amount, converted by molar mass.

Holding throughout (type): cell-based
For one experiment, the system named is Burkholderia mallei. In words: microbe, parasite or virus in culture. The conditions noted are these: for MIC: read-out: MIC range.
The test system of experiment [1] is Burkholderia pseudomallei. The experiment can be described thus: microbe, parasite or virus in culture. The conditions noted are these: for MIC50 / MIC90 / MIC: Burkholderia pseudomallei; for MIC: read-out: MIC range.
For a further experiment, the system named is E. coli DH10B. In words: microbe, parasite or virus in culture. Conditions: Escherichia coli.
The subject of another experiment is Enterobacteriaceae.
Experiment [2] has as its system E. coli DH10B mcr-1 transformant. In words: microbe, parasite or virus in culture. Conditions: Escherichia coli.
The next experiment deals with Yersinia pestis. In words: microbe, parasite or virus in culture. Conditions: for MIC: read-out: MIC range.
The subject of a further experiment is Bacillus anthracis. The experiment can be described thus: microbe, parasite or virus in culture. Conditions: for MIC: read-out: MIC range.
The test system of the next experiment is Francisella tularensis. The experiment can be described thus: microbe, parasite or virus in culture. The conditions noted are these: for MIC: read-out: MIC range.

Consider `CC[C@H]1OC(=O)[C@H](C)[C@@H](O[C@H]2C[C@@](C)(OC)[C@@H](O)[C@H](C)O2)[C@H](C)[C@@H](O[C@@H]2O[C@H](C)C[C@H](N(C)C)[C@H]2O)[C@](C)(O)C[C@@H](C)CN(C)[C@H](C)[C@@H](O)[C@]1(C)O` [Azithromycin, azithromycin, reference compound], for which, in the experiment with Burkholderia mallei, the MIC50 came to 0.5 µg/mL (≈ 0.668 µM), the MIC90 was determined as 1 µg/mL (≈ 1.34 µM) and the MIC lay in the range of 0.06 to 1 µg/mL (≈ 0.0801 to 1.34 µM).
With `CC(C)(O/N=C(\C(=O)N[C@@H]1C(=O)N2C(C(=O)[O-])=C(C[n+]3ccccc3)CS[C@H]12)c1csc(N)n1)C(=O)O` [Ceftazidime, ceftazidime, reference compound], in experiment [1], the MIC range is ≤0.03 to 32 µg/mL, the MIC50 was 1 µg/mL (≈ 1.83 µM) and the MIC90 came out at 1 µg/mL (≈ 1.83 µM).
As to `CSc1cc(-n2cc3cc(-c4cc(CCC[C@@H](N)C5CC5)cc(Cl)c4F)[nH]c3nc2=O)ccc1[C@@H]1CCC[C@@H](CCNC(C)=N)N1` [RX-04B, N-(2-((2S,6S)-6-(4-(6-(5-((R)-4-amino-4-cyclopropylbutyl)-3-chloro-2-fluorophenyl)-2-oxo-2,7-dihydro-3H-pyrrolo[2,3-d]pyrimidin-3-yl)-2-(methylthio)phenyl)piperidin-2-yl)ethyl)acetimidamide], the MIC (with E. coli DH10B; in experiment [2]) was 0.5 µg/mL (≈ 0.753 µM) throughout. The “peak of unimodal MIC distribution” value with Enterobacteriaceae is listed as 1 mg/L.
Regarding `CSc1cc(-n2cc3cc(-c4cc(CCC[C@@H](N)C5CC5)cc(Cl)c4F)[nH]c3nc2=O)ccc1[C@@H]1CCC[C@@H](CCNC(C)=N)N1` [RX-D1], the MIC50 in the experiment with Yersinia pestis was 0.12 µg/mL (≈ 0.181 µM); against Bacillus anthracis, 0.06 µg/mL (≈ 0.0903 µM); in experiment [1], 1 µg/mL (≈ 1.51 µM); against Burkholderia mallei, 0.12 µg/mL (≈ 0.181 µM); against Francisella tularensis, 0.12 µg/mL (≈ 0.181 µM). For the same molecule, the MIC90 against Yersinia pestis was 0.25 µg/mL (≈ 0.376 µM); in the experiment with Bacillus anthracis it was 0.06 µg/mL (≈ 0.0903 µM); in experiment [1], 4 µg/mL (≈ 6.02 µM); against Burkholderia mallei, 0.12 µg/mL (≈ 0.181 µM); against Francisella tularensis it was 0.25 µg/mL (≈ 0.376 µM). The MIC was 0.008 to 0.25 µg/mL (≈ 0.012 to 0.376 µM) in the experiment with Yersinia pestis; 0.008 to 0.12 µg/mL (≈ 0.012 to 0.181 µM) in the experiment with Bacillus anthracis; 0.5 to 4 µg/mL (≈ 0.753 to 6.02 µM) in experiment [1]; 0.06 to 0.25 µg/mL (≈ 0.0903 to 0.376 µM) in the experiment with Burkholderia mallei; 0.06 to 0.5 µg/mL (≈ 0.0903 to 0.753 µM) with Francisella tularensis.
`CC(=N)NCC[C@@H]1CCC[C@@H](c2ccc(-n3cc4cc(-c5cc(CCC[C@H](C)N)cc(Cl)c5F)[nH]c4nc3=O)cc2)N1CCCO` [RX-D2]: the MIC50 in the experiment with Yersinia pestis is 0.25 µg/mL (≈ 0.384 µM); in the experiment with Bacillus anthracis it was 0.06 µg/mL (≈ 0.0923 µM); in experiment [1], > 8 µg/mL; in the experiment on Burkholderia mallei, 0.12 µg/mL (≈ 0.185 µM); with Francisella tularensis it was 0.12 µg/mL (≈ 0.185 µM). In addition, the MIC90 in the experiment on Yersinia pestis was 1 µg/mL (≈ 1.54 µM); in the experiment with Bacillus anthracis it was 0.12 µg/mL (≈ 0.185 µM); in experiment [1] it was > 8 µg/mL; against Burkholderia mallei, 0.25 µg/mL (≈ 0.384 µM); against Francisella tularensis, 0.25 µg/mL (≈ 0.384 µM). The MIC with Yersinia pestis was in the range of 0.03 to 1 µg/mL (≈ 0.0461 to 1.54 µM); in the experiment on Bacillus anthracis, 0.03 to 0.12 µg/mL (≈ 0.0461 to 0.185 µM); in the experiment on Burkholderia mallei, 0.06 to 0.5 µg/mL (≈ 0.0923 to 0.769 µM); in the experiment with Francisella tularensis, 0.015 to 1 µg/mL (≈ 0.0231 to 1.54 µM).
As for `CC(=N)NCC[C@@H]1CCC[C@@H](c2ccc(-n3cc4cc(-c5cc(CCC[C@H](C)N)cc(Cl)c5F)[nH]c4nc3=O)cc2)N1CCCF` [RX-D3], the MIC50 against Yersinia pestis came out at 0.12 µg/mL (≈ 0.184 µM); against Bacillus anthracis it was 0.12 µg/mL (≈ 0.184 µM); in experiment [1], 2 µg/mL (≈ 3.07 µM); against Burkholderia mallei, 0.12 µg/mL (≈ 0.184 µM); against Francisella tularensis, 0.12 µg/mL (≈ 0.184 µM). The MIC90 in the experiment on Yersinia pestis is 0.25 µg/mL (≈ 0.383 µM); against Bacillus anthracis, 0.12 µg/mL (≈ 0.184 µM); in experiment [1], 4 µg/mL (≈ 6.13 µM); with Burkholderia mallei it was 0.25 µg/mL (≈ 0.383 µM); with Francisella tularensis, 0.25 µg/mL (≈ 0.383 µM). Besides, the MIC is 0.06 to 0.5 µg/mL (≈ 0.092 to 0.767 µM) in the experiment with Yersinia pestis; 0.03 to 0.25 µg/mL (≈ 0.046 to 0.383 µM) in the experiment on Bacillus anthracis; 0.5 to 8 µg/mL (≈ 0.767 to 12.3 µM) in experiment [1]; 0.03 to 0.25 µg/mL (≈ 0.046 to 0.383 µM) in the experiment on Burkholderia mallei; 0.015 to 2 µg/mL (≈ 0.023 to 3.07 µM) in the experiment on Francisella tularensis.
Regarding `C[C@H](N)CCCc1cc(Cl)c(F)c(-c2cc3cn(-c4ccc([C@@H]5CCC[C@@H](CCSC(=N)N)N5)cc4)c(=O)nc3[nH]2)c1` [RX-D4], the MIC50 amounted to 0.12 µg/mL (≈ 0.197 µM) in the experiment with Yersinia pestis; 0.06 µg/mL (≈ 0.0983 µM) in the experiment on Bacillus anthracis; 1 µg/mL (≈ 1.64 µM) in experiment [1]; 0.12 µg/mL (≈ 0.197 µM) with Burkholderia mallei; 0.03 µg/mL (≈ 0.0492 µM) in the experiment with Francisella tularensis. Also, the MIC90 in the experiment with Yersinia pestis came out at 0.25 µg/mL (≈ 0.41 µM); against Bacillus anthracis, 0.12 µg/mL (≈ 0.197 µM); in experiment [1], 4 µg/mL (≈ 6.56 µM); with Burkholderia mallei, 0.12 µg/mL (≈ 0.197 µM); against Francisella tularensis, 0.06 µg/mL (≈ 0.0983 µM). Besides, the MIC fell in the range of 0.004 to 0.5 µg/mL (≈ 0.00656 to 0.819 µM) in the experiment with Yersinia pestis; 0.015 to 0.12 µg/mL (≈ 0.0246 to 0.197 µM) in the experiment with Bacillus anthracis; 0.25 to 8 µg/mL (≈ 0.41 to 13.1 µM) in experiment [1]; 0.03 to 0.12 µg/mL (≈ 0.0492 to 0.197 µM) in the experiment with Burkholderia mallei; 0.004 to 0.5 µg/mL (≈ 0.00656 to 0.819 µM) in the experiment on Francisella tularensis.
